Data published in publication PMC3694633, “Functional evolution of scorpion venom peptides with an inhibitor cystine knot fold” (Bioscience Reports, 2013).
Bridge positions count the residues as written; N and C are the ends. Ends that are not written are not given here. Peptide text beside a SMILES is read from it.

What was measured:
mice = conditions: intracerebroventricular inoculation; cited from earlier work
Protocol: It has been reported that the lethality of MCa on mice after intracerebroventricular inoculation (LD50=20 μg/mouse); however, the molecular basis remains unsolved so far.

rKv1.1 = molecular target: T1, rKv1.1 (Rattus norvegicus, UniProt P10499); assay: two-electrode voltage-clamp, rKv1.1 in Xenopus oocytes; assay type: cell-based
T1 construct: expressed in transfected cells; host or cells: Xenopus oocytes injected with cRNA (clone in pGEM, T7 promoter)
T1 sequence (P10499 whole entry): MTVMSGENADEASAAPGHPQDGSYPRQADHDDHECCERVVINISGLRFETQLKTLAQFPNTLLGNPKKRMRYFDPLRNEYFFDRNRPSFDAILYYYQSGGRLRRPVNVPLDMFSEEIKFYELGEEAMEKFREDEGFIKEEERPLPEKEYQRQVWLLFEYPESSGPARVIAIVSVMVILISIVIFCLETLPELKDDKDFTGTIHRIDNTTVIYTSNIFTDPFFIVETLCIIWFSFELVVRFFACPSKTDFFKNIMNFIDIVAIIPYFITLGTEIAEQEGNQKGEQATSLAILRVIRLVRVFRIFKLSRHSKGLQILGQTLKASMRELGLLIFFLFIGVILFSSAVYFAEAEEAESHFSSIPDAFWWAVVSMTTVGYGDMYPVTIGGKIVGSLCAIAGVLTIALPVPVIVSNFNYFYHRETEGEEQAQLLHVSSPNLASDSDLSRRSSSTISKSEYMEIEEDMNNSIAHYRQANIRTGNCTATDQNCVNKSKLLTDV
Protocol: (§1) For the expression of Kv channels (rKv1.1–rKv1.4 and Shaker IR) and Nav channels (rNav1.1, rNav1.2, rNav1.4, rNav1.5 and mNav1.6) in Xenopus oocytes, the linearized plasmids were transcribed with the T7 or SP6 mMESSAGE-mMACHINE transcription kits (Supplementary Table S2, available at http://www.bioscirep.org/bsr/033/bsr033e047add.htm). Oocytes were digested for 1–2 h at room temperature in Ca^2+-free ND96 (in mM: NaCl, 96; KCl, 2; […]; MgCl2, 2 and Hepes, 5, adjusted to pH 7.4 with NaOH) containing 0.5 mg/ml collagenase (type I, sigma). Oocytes were injected with 0.5 ng of cRNA by NANOLITER 2000 (World Precision Instruments Inc.). The oocytes were incubated in ND96 solution supplemented with 50 mg/l gentamycin sulfate at 18°C.
(§2) Ion channel currents were recorded 1–3 days after injection with Oocyte Clamp OC-725C (Warner Instument Corp.) and Digidata 1440A (Axon CNS, Molecular Devices) controlled by pCLAMP10 software (Axon). […] All data were recorded from at least three independent oocytes (n≥3) and are presented as mean±S.E.. […] Data were analysed by pCLAMP 10 (Molecular Devices) and SigmaPlot 10.0 (Systat Software).

[1] = molecular target: T2, Drosophila Shaker channel (Shaker IR) (Drosophila melanogaster, UniProt P08510, DEL6-46); assay: two-electrode voltage-clamp, Shaker channel in Xenopus oocytes; assay type: cell-based; conditions: for activity on the Shaker channel after C-terminal modification: Figure 6 modified peptides at 10 μM, n=3, GP deletion: results not shown
T2 construct: expressed in transfected cells; host or cells: Xenopus oocytes injected with cRNA (clone in pBluescript, T7 promoter)
T2 sequence (P08510 with tags, fused parts or gaps DEL6-46): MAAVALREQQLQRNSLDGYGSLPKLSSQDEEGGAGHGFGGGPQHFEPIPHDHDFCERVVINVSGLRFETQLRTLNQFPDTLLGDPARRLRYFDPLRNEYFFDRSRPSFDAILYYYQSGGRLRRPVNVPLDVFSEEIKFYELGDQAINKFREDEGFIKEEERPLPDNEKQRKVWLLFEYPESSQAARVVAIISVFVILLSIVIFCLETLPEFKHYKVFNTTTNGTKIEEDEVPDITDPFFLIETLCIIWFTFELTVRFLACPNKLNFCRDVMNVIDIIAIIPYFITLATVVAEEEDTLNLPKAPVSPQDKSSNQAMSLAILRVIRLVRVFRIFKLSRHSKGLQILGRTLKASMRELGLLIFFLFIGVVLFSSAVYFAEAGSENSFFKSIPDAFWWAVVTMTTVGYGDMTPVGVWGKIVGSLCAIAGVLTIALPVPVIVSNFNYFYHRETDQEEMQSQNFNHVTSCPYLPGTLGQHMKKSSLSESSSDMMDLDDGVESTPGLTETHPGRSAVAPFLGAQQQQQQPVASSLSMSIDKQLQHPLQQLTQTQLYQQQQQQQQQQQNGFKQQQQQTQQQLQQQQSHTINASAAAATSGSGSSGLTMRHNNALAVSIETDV
Protocol: as §1
Ion channel currents were recorded 1–3 days after injection with Oocyte Clamp OC-725C (Warner Instument Corp.) and Digidata 1440A (Axon CNS, Molecular Devices) controlled by pCLAMP10 software (Axon). Pipettes were pulled by P-97 FLAMING/BROWN Micropipette Puller (Sutter Instrument Co.) with resistance of 0.1–1.0 MΩ when filled with 3 M KCl. rKv1.1–rKv1.4 and Shaker currents were evoked by 250 ms depolarization to 0 mV followed by a 250 ms pulse to −50 mV, from a holding potential of −90 mV. rNav1.1, 1.2, 1.4, 1.5 and mNav1.6 currents were evoked by 100 ms depolarization to −10 mV from a holding potential of −90 mV. All data were recorded from at least three independent oocytes (n≥3) and are presented as mean±S.E.. Leak subtraction was carried out with a P/4 protocol. Data were analysed by pCLAMP 10 (Molecular Devices) and SigmaPlot 10.0 (Systat Software).

[2] = stability to non-enzymatic hydrolysis during oxidative refolding; assay type: physicochemical; conditions: 0.1 M Tris–HCl pH 8.0, 0.5 mM peptide, 25°C, 48 h; for chemical stability (non-enzymatic hydrolysis, Val35–Gly36 peptide bond): RP-HPLC / MALDI-TOF-MS
Protocol: λ-MK1 and λ-MK1a in their reduced form were chemically synthesized by ChinaPeptides Co., Ltd. and Scilight-Peptide Inc., respectively. For oxidative refolding, peptide samples were dissolved in 0.1 M Tris–HCl buffer (pH 8.0) to a final concentration of 0.5 mM and incubated at 25°C for 48 h. Peptides were purified by RP-HPLC (reversed-phase HPLC). Purity and molecular masses of peptides were determined by MALDI-TOF-MS on a Kratos PC Axima CFR plus (Shimadzu Co. LTD).

[3] = system: sarcoplasmic reticulum Ca^2+ release channels/ryanodine receptors of skeletal and cardiac muscles; conditions: cited from earlier work
Text: The ICK fold is an exceptionally stable structural motif comprising an embedded ring formed by two disulfide bridges (Cys^1–Cys^4 and Cys^2–Cys^5) and their connecting backbone segments, which is threaded by a third disulfide bridge (Cys^3–Cys^6).

Na^+ channel = system: Na^+ channel; parameters: method as in PMID 21665957; conditions: cited from earlier work
[4] = system: apamin-sensitive SKCa channels; conditions: cited from earlier work
Text: This is further strengthened by the evolutionary conservation of these two residues in all the members of λ-KTx subgroup. To further investigate the functional significance of this region, we carried out C-terminal amidation, a common post-translational modification for many toxins from venoms of scorpions, spiders and cone snails. The amidated peptide (named λ-MK1a) was oxi ...

rKv1.3 = assay: two-electrode voltage-clamp, rKv1.3 in Xenopus oocytes; assay type: cell-based; conditions: 10 μM, 250 ms depolarization to 0 mV from −90 mV, mean±S.E. (n=3)
Protocol: as §1, §2

rKv1.4 = assay: two-electrode voltage-clamp, rKv1.4 in Xenopus oocytes; assay type: cell-based; conditions: 10 μM, 250 ms depolarization to 0 mV from −90 mV, mean±S.E. (n=3)
Protocol: as §1, §2

rKv1.2 = assay: two-electrode voltage-clamp, rKv1.2 in Xenopus oocytes; assay type: cell-based; conditions: 10 μM, 250 ms depolarization to 0 mV from −90 mV, mean±S.E. (n=3)
Protocol: as §1, §2

[5] = molecular target: rKv1.1 (not stated (printed rKv1.1, called mammalian; r read as rat)) (UniProt P10499)
Sequence of rKv1.1 (not stated (printed rKv1.1, called mammalian; r read as rat)) (P10499 whole entry): as the sequence (P10499 whole entry) above

[6] = molecular target: rKv1.3 (not stated (printed rKv1.1-rKv1.4, called mammalian; r read as rat)) (UniProt P15384)
Sequence of rKv1.3 (not stated (printed rKv1.1-rKv1.4, called mammalian; r read as rat)) (P15384 whole entry): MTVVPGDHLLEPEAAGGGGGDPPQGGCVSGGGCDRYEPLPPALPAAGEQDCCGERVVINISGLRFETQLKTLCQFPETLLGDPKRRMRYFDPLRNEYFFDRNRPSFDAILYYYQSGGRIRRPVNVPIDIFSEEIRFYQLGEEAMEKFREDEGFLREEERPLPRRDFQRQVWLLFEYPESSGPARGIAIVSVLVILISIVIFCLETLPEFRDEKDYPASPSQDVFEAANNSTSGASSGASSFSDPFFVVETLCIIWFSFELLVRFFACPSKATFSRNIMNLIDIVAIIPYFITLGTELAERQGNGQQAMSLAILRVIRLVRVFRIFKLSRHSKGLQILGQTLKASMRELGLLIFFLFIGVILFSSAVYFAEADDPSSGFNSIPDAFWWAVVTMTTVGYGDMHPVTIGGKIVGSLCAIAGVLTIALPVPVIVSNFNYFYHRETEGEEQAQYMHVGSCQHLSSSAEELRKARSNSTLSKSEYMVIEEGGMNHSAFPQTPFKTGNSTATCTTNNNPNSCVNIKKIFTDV

[7] = molecular target: rKv1.4 (not stated (printed rKv1.4, called mammalian; r read as rat)) (UniProt P15385)
Sequence of rKv1.4 (not stated (printed rKv1.4, called mammalian; r read as rat)) (P15385 whole entry): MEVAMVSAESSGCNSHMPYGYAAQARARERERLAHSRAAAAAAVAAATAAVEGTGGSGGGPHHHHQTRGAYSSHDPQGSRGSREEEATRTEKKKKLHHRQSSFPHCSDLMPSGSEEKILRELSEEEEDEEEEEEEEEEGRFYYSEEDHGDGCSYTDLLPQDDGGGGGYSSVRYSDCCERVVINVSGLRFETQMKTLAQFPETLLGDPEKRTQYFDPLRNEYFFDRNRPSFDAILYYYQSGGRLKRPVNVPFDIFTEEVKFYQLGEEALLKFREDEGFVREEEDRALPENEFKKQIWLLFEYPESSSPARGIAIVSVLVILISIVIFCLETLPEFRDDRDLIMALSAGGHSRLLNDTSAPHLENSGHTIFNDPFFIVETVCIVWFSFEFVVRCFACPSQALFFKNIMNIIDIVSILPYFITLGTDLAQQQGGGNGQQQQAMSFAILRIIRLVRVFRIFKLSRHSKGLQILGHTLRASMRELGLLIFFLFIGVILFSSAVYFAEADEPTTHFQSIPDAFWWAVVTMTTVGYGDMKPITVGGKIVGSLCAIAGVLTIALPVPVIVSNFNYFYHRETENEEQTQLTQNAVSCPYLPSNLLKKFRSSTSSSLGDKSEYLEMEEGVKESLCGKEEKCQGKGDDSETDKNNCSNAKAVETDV

[8] = molecular target: rKv1.1 (not stated (printed rKv1.1, called mammalian; r read as rat)) (UniProt P10499); remark: listed apart in the source
[9] = molecular target: rKv1.2 (not stated (printed rKv1.1-rKv1.4, called mammalian; r read as rat)) (UniProt P63142)
Sequence of rKv1.2 (not stated (printed rKv1.1-rKv1.4, called mammalian; r read as rat)) (P63142 whole entry): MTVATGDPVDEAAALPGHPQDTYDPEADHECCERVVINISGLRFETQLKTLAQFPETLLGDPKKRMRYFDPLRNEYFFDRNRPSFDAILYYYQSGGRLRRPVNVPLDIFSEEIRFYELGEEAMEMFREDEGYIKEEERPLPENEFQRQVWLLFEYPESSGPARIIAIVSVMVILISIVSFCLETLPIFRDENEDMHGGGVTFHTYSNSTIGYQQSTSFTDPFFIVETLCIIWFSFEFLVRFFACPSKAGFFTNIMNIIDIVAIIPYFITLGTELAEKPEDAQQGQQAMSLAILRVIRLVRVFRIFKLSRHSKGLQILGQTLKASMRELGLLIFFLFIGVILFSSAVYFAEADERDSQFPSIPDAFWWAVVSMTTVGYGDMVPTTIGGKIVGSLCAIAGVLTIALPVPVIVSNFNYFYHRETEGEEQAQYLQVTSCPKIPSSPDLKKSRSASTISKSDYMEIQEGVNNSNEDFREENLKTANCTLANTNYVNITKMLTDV

[10] = molecular target: Drosophila Shaker K+ channel (Shaker IR) (Drosophila) (UniProt P08510)
Sequence of Drosophila Shaker K+ channel (Shaker IR) (Drosophila) (P08510 whole entry): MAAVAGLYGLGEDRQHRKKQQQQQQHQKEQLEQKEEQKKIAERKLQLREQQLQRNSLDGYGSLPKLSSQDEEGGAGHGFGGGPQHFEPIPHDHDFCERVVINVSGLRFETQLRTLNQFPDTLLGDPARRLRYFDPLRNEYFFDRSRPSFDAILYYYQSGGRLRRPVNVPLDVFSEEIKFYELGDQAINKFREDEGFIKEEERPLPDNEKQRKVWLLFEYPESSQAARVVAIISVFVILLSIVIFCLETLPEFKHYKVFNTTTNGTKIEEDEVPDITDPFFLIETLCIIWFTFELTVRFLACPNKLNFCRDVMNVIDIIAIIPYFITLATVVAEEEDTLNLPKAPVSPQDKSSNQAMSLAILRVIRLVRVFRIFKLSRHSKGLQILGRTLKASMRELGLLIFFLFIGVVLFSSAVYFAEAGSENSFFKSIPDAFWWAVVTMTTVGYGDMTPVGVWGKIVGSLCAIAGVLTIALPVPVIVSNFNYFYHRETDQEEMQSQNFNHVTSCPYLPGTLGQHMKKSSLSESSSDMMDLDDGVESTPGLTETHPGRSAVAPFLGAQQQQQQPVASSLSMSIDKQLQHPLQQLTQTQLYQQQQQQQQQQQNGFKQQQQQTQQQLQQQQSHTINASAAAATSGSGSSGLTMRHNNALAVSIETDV

CC[C@H](C)[C@@H]1NC(=O)[C@H](CC(N)=O)NC(=O)[C@H]([C@@H](C)O)NC(=O)CNC(=O)[C@H](CCCNC(=N)N)NC(=O)[C@H](CCCNC(=N)N)NC(=O)[C@H](CCCCN)NC(=O)[C@@H]2CSSC[C@@H]3NC(=O)[C@H](CC(C)C)NC(=O)[C@H](CCCCN)NC(=O)[C@H](CC(C)C)NC(=O)[C@H](Cc4c[nH]cn4)NC(=O)[C@@H]4CCCN4C(=O)[C@H](CC(C)C)NC(=O)[C@@H](NC(=O)[C@H](CC(=O)O)NC(=O)CN)CSSC[C@H](NC(=O)[C@H](CSSC[C@@H](C(=O)N[C@@H](CCCNC(=N)N)C(=O)O)NC(=O)[C@H](CCCNC(=N)N)NC(=O)[C@H](CCCCN)NC(=O)[C@H](CCC(=O)O)NC1=O)NC(=O)[C@H](CC(=O)O)NC(=O)[C@H](CCCCN)NC(=O)[C@H](CC(N)=O)NC(=O)[C@H](CCC(=O)O)NC(=O)[C@H](CCCCN)NC3=O)C(=O)N[C@@H](CO)C(=O)N[C@@H](CCCCN)C(=O)N[C@@H](CCCCN)C(=O)N2 [MCa, reference compound] (H-GDCLPHLKLCKENKDCCSKKCKRRGTNIEKRCR-OH; disulfide 3-17, 10-21, 16-32)
LD50 (mice): 20 μg/mouse
IC50 (rKv1.1; dose-response, each point mean±S.E. (n=3), read-out: IC50, inhibition of rKv1.1 currents): 21.9 ± 1.04 µM

CC[C@H](C)[C@@H]1NC(=O)[C@@H]2CSSC[C@@H]3NC(=O)[C@H](CCCCN)NC(=O)[C@H](CCCCN)NC(=O)[C@H](CC(N)=O)NC(=O)[C@H](CC(C)C)NC(=O)[C@H](CCCNC(=N)N)NC(=O)[C@H](CC(N)=O)NC(=O)[C@@H](NC(=O)CN)CSSC[C@H](NC(=O)[C@H](CSSC[C@@H](C(=O)N[C@@H](CCCNC(=N)N)C(=O)N4CCC[C@H]4C(=O)N[C@@H](CC(=O)O)C(=O)N[C@H](C(=O)NCC(=O)N4CCC[C@H]4C(=O)O)C(C)C)NC(=O)[C@H](Cc4ccc(O)cc4)NC(=O)[C@H](Cc4ccc(O)cc4)NC(=O)[C@H](CC(N)=O)NC(=O)[C@H](C(C)C)NC(=O)CNC(=O)[C@H]([C@@H](C)O)NC(=O)[C@H](CO)NC1=O)NC(=O)[C@H](CC(=O)O)NC(=O)[C@H](C)NC(=O)[C@H](CC(=O)O)NC(=O)[C@H](CO)NC(=O)[C@H](CC(N)=O)NC3=O)C(=O)N[C@@H](CCCNC(=N)N)C(=O)N[C@@H](Cc1ccc(O)cc1)C(=O)NCC(=O)N[C@@H](CCC(=O)O)C(=O)N[C@@H](CCCNC(=N)N)C(=O)N2 [λ-MK1] (H-GCNRLNKKCNSDADCCRYGERCISTGVNYYCRPDVGP-OH; disulfide 2-16, 9-22, 15-31)
reduction of Shaker channel currents ([1]; 10 μM, Xenopus oocytes, 250 ms depolarization to 0 mV from −90 mV, mean±S.E. (n=3)): 44.7±10.2%
IC50 ([1]; dose-response fitted by Hill equation, each point mean±S.E. (n=3), read-out: peptide concentration at half-maximal efficacy (IC50), Shaker channel): 12.3 ± 0.96 µM
chemical stability (non-enzymatic hydrolysis, Val35–Gly36 peptide bond) [2]: instability of a peptide bond between Val^35 and Gly^36 in an alkaline environment

imperatoxin A (GDCLPHLKRCKADNDCCGKKCKRRGTNAEKRCR; UniProt P59868 1-33, looked up)
activation of Ca2+ release channels/ryanodine receptors [3]: activators of sarcoplasmic reticulum Ca^2+ release channels/ryanodine receptors of skeletal and cardiac muscles

jingzhaotoxin-III: tarantula toxin, an Na^+ channel blocker with an ICK fold (DGECGGFWWKCGRGKPPCCKGYACSKTWGWCAVEAP; also: ICK fold, disulfide pairing not given here; UniProt P62520 28-63, looked up)
Na+ channel block (Na^+ channel): Na^+ channel blocker

leiurotoxin I: a scorpion α-KTx (AFCNLRMCQLSCRSLGLLGKCIGDKCECVKH; ends and bridges not checked; cysteine pairing not given here; UniProt P16341 1-31, looked up)
effect of C-terminal amidation on affinity for apamin-sensitive SKCa channels [4]: increase the affinity

λ-MK1a: the amidated peptide of λ-MK1, three disulfide bridges (GCNRLNKKCNSDADCCRYGERCISTGVNYYCRPDFGP-NH2; disulfide (positions not given here))
current reduction of rKv1.3 (rKv1.3): 9.0±3.2%
current reduction of rKv1.1 (rKv1.1; 10 μM, 250 ms depolarization to 0 mV from −90 mV, mean±S.E. (n=3)): 7.7±1.8%
current reduction of rKv1.4 (rKv1.4): 35.7±4.26%
activity on the Shaker channel after C-terminal modification ([1]; Xenopus oocytes): switched the target of λ-MK1 from the Shaker channel to mammalian Kv channels
activity on the Shaker channel after C-terminal modification ([1]; Xenopus oocytes, listed as C-terminal amidation): loss of activity on the Shaker channel
chemical stability (non-enzymatic hydrolysis, Val35–Gly36 peptide bond) [2]: completely inhibited the non-enzymatic hydrolysis of the peptide
refolding efficiency ([2]; RP-HPLC, relative to λ-MK1): largely improved its refolding efficiency
current reduction of rKv1.2 (rKv1.2): 25.3±3.6%

GDCLPHLKLCKENKDCCSKKCKRRGTNIEKRCR [maurocalcine]
IC50 of inhibition of rKv1.1 currents, dose-response, two-electrode voltage clamp in Xenopus oocytes [5]: 21.9 µM

B1: λ-MK1a (peptide)
chain: GCNRLNKKCNSDADCCRYGERCISTGVNYYCRPDFGP-NH2
modifications: disulfide (positions not given here); not fully specified (bridges); ends not checked; also: three disulfide bridges, pairing not given here
reduction of rKv1.3 currents at 10 μM peptide, two-electrode voltage clamp in Xenopus oocytes [6]: 9%
reduction of rKv1.4 currents at 10 μM peptide, two-electrode voltage clamp in Xenopus oocytes [7]: 35.7%
reduction of rKv1.1 currents at 10 μM peptide, two-electrode voltage clamp in Xenopus oocytes [8]: 7.7%
reduction of rKv1.2 currents at 10 μM peptide, two-electrode voltage clamp in Xenopus oocytes [9]: 25.3%

GCNRLNKKCNSDADCCRYGERCISTGVNYYCRPDFGP [λ-MeuKTx-1]
reduction of Shaker channel currents at 10 μM peptide, two-electrode voltage clamp in Xenopus oocytes [10]: 44.7%
